# Values of other authors as cited in patent publication US8426044B2, “Method for imparting antimicrobial activity to a medical device” (Board of Regents, The University of Texas System, priority 2009, dated 2013).
# How the values were obtained:
# [1] = system: Pseudomonas aeruginosa cells embedded in a biofilm; conditions: MBC for the identical strain grown in liquid suspension
# [2] = for solubility in organic solvents: organic solvents incl. alcohols, ketones, ethers, aldehydes, acetonitrile, acetic acid, methylene chloride, chloroform
Structure (SMILES),antibiotic level unable to kill biofilm-embedded cells [1],solubility in organic solvents [2],solubility in water [2]
NC[C@H]1O[C@H](O[C@H]2[C@H](O)[C@@H](O[C@H]3O[C@H](CO)[C@@H](O)[C@H](N)[C@H]3O)[C@H](N)C[C@@H]2N)[C@H](N)C[C@@H]1O [tobramycin],greater than 50 times the minimum bactericidal concentration (MBC),,
CO[C@H]1/C=C/O[C@@]2(C)Oc3c(C)c(O)c4c(O)c(c(/C=N/N5CCN(C)CC5)c(O)c4c3C2=O)NC(=O)/C(C)=C\C=C\[C@H](C)[C@H](O)[C@@H](C)[C@@H](O)[C@@H](C)[C@H](OC(C)=O)[C@@H]1C [Rifampin],,freely soluble in acidic aqueous solutions and organic solutions,very slightly soluble in water
[H]/N=C(\N/C(=N/[H])NCCCCCCNC(=N)NC(=N)Nc1ccc(Cl)cc1)Nc1ccc(Cl)cc1 [Chlorhexidine],,soluble in both water and organic solutions,soluble in both water and organic solutions
